The values below come from ChEMBL document CHEMBL2069253, “Dipeptidyl peptidase-4 inhibitor with β-amino amide scaffold: synthesis, SAR and biological evaluation” (Bioorg Med Chem Lett, 2012).

For series [1], the species on record is Mus musculus. Kind of series: animal or person. Conditions: C57BL/6J, Plasma, po, 1 h, read-out: INH.
Description: In vivo inhibition of DPP4 in C57BL/6J mouse plasma at 0.3 mg/kg, po measured after 1 hr
Series [2] is filed under the species Mus musculus. Kind of series: animal or person. Conditions: C57BL/6J, Plasma, po, 1 h, read-out: INH. This is another data set of the same source.
Description: In vivo inhibition of DPP4 in C57BL/6J mouse plasma at 3 mg/kg, po measured after 1 hr
The target in series [3] is T1, CYP3A4 (Homo sapiens, UniProt P08684). The experiment in a line: Inhibition of CYP3A4 at 1 uM. It is filed as ADME.
T1 sequence (P08684 whole entry): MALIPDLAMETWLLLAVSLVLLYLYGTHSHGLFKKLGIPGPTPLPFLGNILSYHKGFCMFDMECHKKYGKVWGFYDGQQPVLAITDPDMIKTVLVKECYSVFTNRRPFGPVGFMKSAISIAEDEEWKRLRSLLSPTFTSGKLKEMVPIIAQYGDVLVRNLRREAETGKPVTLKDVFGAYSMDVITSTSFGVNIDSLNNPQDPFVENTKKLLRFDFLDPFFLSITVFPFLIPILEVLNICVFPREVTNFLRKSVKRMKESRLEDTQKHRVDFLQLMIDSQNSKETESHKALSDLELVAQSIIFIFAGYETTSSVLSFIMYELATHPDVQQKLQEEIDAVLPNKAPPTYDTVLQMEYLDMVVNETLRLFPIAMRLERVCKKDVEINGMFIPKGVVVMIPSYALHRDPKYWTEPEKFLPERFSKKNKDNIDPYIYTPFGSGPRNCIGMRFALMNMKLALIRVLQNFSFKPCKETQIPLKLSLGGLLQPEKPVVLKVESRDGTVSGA
The species named for series [4] is Mus musculus. Kind of series: animal or person. As to conditions: C57BL/6J, Plasma, po, 1 h.
Description: In vivo inhibition of DPP4 in po dosed C57BL/6J mouse plasma measured after 1 hr
Series [5] has as its target T1, CYP3A4. The experiment in a line: Inhibition of CYP3A4 at 10 uM. The series is classed as ADME.
A further series deals with Dipeptidyl peptidase 4 (Mus musculus, UniProt P28843). Kind of series: Inhibition of mouse DPP4.
Dipeptidyl peptidase 4, sequence (P28843 whole entry): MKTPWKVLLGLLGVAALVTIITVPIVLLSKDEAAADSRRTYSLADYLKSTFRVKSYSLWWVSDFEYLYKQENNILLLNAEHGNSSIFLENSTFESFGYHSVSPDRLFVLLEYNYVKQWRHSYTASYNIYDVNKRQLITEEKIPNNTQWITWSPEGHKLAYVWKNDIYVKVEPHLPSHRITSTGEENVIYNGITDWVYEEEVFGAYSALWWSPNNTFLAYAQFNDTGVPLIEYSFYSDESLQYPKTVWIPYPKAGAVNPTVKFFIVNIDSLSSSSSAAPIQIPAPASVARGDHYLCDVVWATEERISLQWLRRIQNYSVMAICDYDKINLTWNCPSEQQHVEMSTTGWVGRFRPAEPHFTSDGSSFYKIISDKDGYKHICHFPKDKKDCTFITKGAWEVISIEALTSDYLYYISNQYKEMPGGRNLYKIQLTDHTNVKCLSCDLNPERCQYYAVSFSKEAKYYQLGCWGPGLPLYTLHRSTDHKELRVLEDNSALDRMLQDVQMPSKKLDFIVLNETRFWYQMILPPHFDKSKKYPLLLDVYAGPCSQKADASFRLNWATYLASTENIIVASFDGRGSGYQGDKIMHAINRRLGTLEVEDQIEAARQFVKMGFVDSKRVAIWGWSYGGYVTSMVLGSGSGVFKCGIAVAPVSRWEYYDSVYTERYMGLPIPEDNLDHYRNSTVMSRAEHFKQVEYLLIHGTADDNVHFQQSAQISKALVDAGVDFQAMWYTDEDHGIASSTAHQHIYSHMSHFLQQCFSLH
Series [6] concerns the target T1, CYP3A4. Kind of series: Inhibition of CYP3A4 at 3 uM. It is filed as ADME.
The species named for series [7] is Mus musculus. The experiment in a line: animal or person. Conditions: C57BL/6J, Plasma, po, 1 h, read-out: INH. This is another data set of the same source.
Description: In vivo inhibition of DPP4 in C57BL/6J mouse plasma at 10 mg/kg, po measured after 1 hr
Series [8] is filed under the species Mus musculus. The experiment in a line: animal or person. As to conditions: C57BL/6J, Plasma, po, 1 h, read-out: INH. The source holds these as a separate data set.
Description: In vivo inhibition of DPP4 in C57BL/6J mouse plasma at 1 mg/kg, po measured after 1 hr
Series [9] deals with T2, Cytochrome P450 3A4 (Homo sapiens, UniProt P08684). Kind of series: Inhibition of CYP3A4. It is filed as ADME.
T2 sequence (P08684 whole entry): as the sequence (P08684 whole entry) above
For series [10], the species on record is Rattus norvegicus. The experiment in a line: animal or person. Conditions: Sprague-Dawley, Plasma, po, 24 h, read-out: INH.
Description: In vivo inhibition of DPP4 in Sprague-Dawley rat plasma at 10 mg/kg, po administered as single dose measured after 24 hrs
The species named for series [11] is Mus musculus. The experiment in a line: animal or person. As to conditions: C57BL/6J, po, 2 h.
Description: Antidiabetic activity in po dosed C57BL/6J mouse assessed as reduction in glucose AUC administered prior to glucose challenge measured up to 120 mins
Series [12] can be described thus: Metabolic stability in human liver microsomes assessed as compound remaining at 1 hr. It is filed as ADME, Microsome. Conditions: read-out: Stability.
The nature of series [13]: Metabolic stability in dog liver microsomes assessed as compound remaining at 1 hr. The series is classed as ADME, Canis lupus familiaris, Microsome. Conditions: read-out: Stability.
A short description of series [14]: Metabolic stability in rat liver microsomes assessed as compound remaining at 1 hr. The series is classed as ADME, Microsome. Conditions: read-out: Stability.
Series [15] in a line: Stability in human plasma assessed as compound remaining at 1 hr. The series is classed as ADME, cell-free. Conditions: read-out: Stability.
Series [16] is filed under the species Mus musculus. Kind of series: animal or person. As to conditions: C57BL/6J, po, 1 h, read-out: INH.
Description: In vivo inhibition of DPP4 in C57BL/6J mouse at 1 mg/kg, po measured after 1 hr
For series [17], the species on record is Mus musculus. Kind of series: animal or person. Conditions: C57BL/6J, po, 1 h, read-out: INH. This is another data set of the same source.
Description: In vivo inhibition of DPP4 in C57BL/6J mouse at 3 mg/kg, po measured after 1 hr
The nature of series [18]: Protein binding in mouse. The series is classed as ADME, organism-based. Conditions: plasma, read-out: PB (converted).
Series [19] is described as follows: Protein binding in human. It is filed as ADME, organism-based. As to conditions: plasma, read-out: PB (converted).
The species named for series [20] is Mus musculus. The experiment in a line: animal or person. Conditions: C57BL/6J, po, 1 h, read-out: INH. This is another data set of the same source.
Description: In vivo inhibition of DPP4 in C57BL/6J mouse at 10 mg/kg, po measured after 1 hr
Series [21] is filed under the species Rattus norvegicus. The experiment in a line: animal or person. Conditions: Sprague-Dawley, Plasma, po, 6 h, read-out: INH.
Description: In vivo inhibition of DPP4 in Sprague-Dawley rat plasma at 10 mg/kg, po administered as single dose measured up to 6 hrs
A short description of series [22]: Stability in mouse plasma assessed as compound remaining at 1 hr. The series is classed as ADME, cell-free. As to conditions: read-out: Stability.
The nature of series [23]: Protein binding in rat. The series is classed as ADME, organism-based. Conditions: plasma, read-out: PB (converted).
Series [24] addresses T2, Cytochrome P450 3A4. The experiment in a line: Induction of CYP3A4 at 50 uM. It is filed as ADME.
The nature of series [25]: Stability in rat plasma assessed as compound remaining at 1 hr. As to conditions: read-out: Stability. The series is classed as ADME, cell-free.
Series [26] is described as follows: Half life in rat at 10 mg/kg, po. It is filed as ADME, organism-based. Also noted: dose 10 mg/kg, route oral. Conditions: in vivo.
The nature of series [27]: Metabolic stability in mouse liver microsomes assessed as compound remaining at 1 hr. It is filed as ADME, Microsome. As to conditions: read-out: Stability.
A short description of series [28]: Oral bioavailability in rat at 10 mg/kg. It is filed as ADME, organism-based. Conditions: in vivo.
Series [29] can be described thus: Cmax in rat at 10 mg/kg, po. The series is classed as ADME, organism-based. Also noted: dose 10 mg/kg, route oral. As to conditions: in vivo.
A short description of series [30]: Solubility of the compound at pH 1-9. It is filed as physicochemical. As to conditions: buffer.

With `N[C@@H](CC(=O)N1CCN(c2ccc(F)cc2F)CC1)Cc1cc(F)c(F)cc1F`, the inhibition in vivo at 0.3 mg/kg in the series listed under Mus musculus [1] is 33.8%. In addition, the inhibition in vivo at 3 mg/kg in the series filed under Mus musculus [2] is 68.6%. The compound further registered an inhibition at 1 µM on CYP3A4 [3] of 81.5%. In the series listed under Mus musculus [4], the median effective dose (ED50) was 0.87 mg/kg. Moreover, at 10 µM the inhibition on CYP3A4 [5] was 100%. The compound further displayed an IC50 on Dipeptidyl peptidase 4 of 94.4 nM. Moreover, the inhibition at 3 µM on CYP3A4 [6] is 94%. In addition, the inhibition in vivo at 10 mg/kg in the series filed under Mus musculus [7] came out at 85.9%. In addition, the inhibition in vivo at 1 mg/kg in the series filed under Mus musculus [8] came out at 52.2%.

In turn, `N[C@@H](CC(=O)N1CCN(C(=O)c2ccccc2)CC1)Cc1cc(F)c(F)cc1F` displayed an IC50 on Cytochrome P450 3A4 [9] of 1000 nM.

`N[C@@H](CC(=O)N1CCN(C(=O)c2ccc(F)cc2)CC1)Cc1cc(F)c(F)cc1F` showed an IC50 at Cytochrome P450 3A4 [9] of 1000 nM.

Consider `N[C@@H](CC(=O)N1CCN(C(=O)c2ccc(O)cc2)CC1)Cc1cc(F)c(F)cc1F`, for which the half-maximal inhibitory concentration (IC50) against Cytochrome P450 3A4 [9] stood at 1000 nM.

`N[C@@H](CC(=O)N1CCN(C(=O)c2ccc(OC(F)(F)F)cc2)CC1)Cc1cc(F)c(F)cc1F`: the half-inhibitory concentration (IC50) on Cytochrome P450 3A4 [9] is 1000 nM.

At Cytochrome P450 3A4 [9], `N[C@@H](CC(=O)N1CCN(C(=O)c2ccc(C(F)(F)F)cc2)CC1)Cc1cc(F)c(F)cc1F` came in with an IC50 of 1000 nM.

In turn, `N[C@@H](CC(=O)N1CCN(C(=O)c2ccc(S(N)(=O)=O)cc2)CC1)Cc1cc(F)c(F)cc1F` yielded an IC50 against Cytochrome P450 3A4 [9] of 1000 nM.

On to `N[C@@H](CC(=O)N1CCN(C(=O)c2ccc(C(=O)O)cc2)CC1)Cc1cc(F)c(F)cc1F`, for which the IC50 against Cytochrome P450 3A4 [9] was determined as 1000 nM.

Compound `N[C@@H](CC(=O)N1CCN(C(=O)c2cccc(C(=O)O)c2)CC1)Cc1cc(F)c(F)cc1F` registered a half-inhibitory concentration (IC50) against Cytochrome P450 3A4 [9] of 1000 nM.

In turn, `CN1CCN(c2ccc(C(=O)N3CCN(C(=O)C[C@H](N)Cc4cc(F)c(F)cc4F)CC3)cc2)CC1` displayed a half-maximal inhibitory concentration (IC50) on Cytochrome P450 3A4 [9] of 1000 nM.

As to `N[C@@H](CC(=O)N1CCN(C(=O)c2ccccn2)CC1)Cc1cc(F)c(F)cc1F`, the inhibition in vivo at 10 mg/kg came to 30% in the series filed under Rattus norvegicus [10], 84.6% in the series filed under Mus musculus [20] and 60% in the series listed under Rattus norvegicus [21]. In the series filed under Mus musculus [11], this compound registered an ED30 of 0.38 mg/kg. Further, the remaining at 1 h in series [12] is 89%; in [13] it was 88%; in series [14], 85%; in [15] it was 97%; in series [22], > 97%; in series [25] it was > 97%. In addition, the remaining at 1 h in [27] turned out to be 79%. The inhibition in vivo at 1 mg/kg in the series filed under Mus musculus [16] turned out to be 32.5%. Further, the inhibition in vivo at 3 mg/kg in the series filed under Mus musculus [17] amounted to 59.1%. Besides, the fraction unbound in series [18] is 0.557; in [19], 0.497; in series [23] it was 0.729. For the same compound, the Activity on Cytochrome P450 3A4 [24] is listed as < 10%. For the same compound, the half-life in series [26] was 4.74 h. The same compound showed a bioavailability in series [28] of 65.3%. The compound further had a peak concentration (Cmax) in [29] of 2030 ng/mL. In addition, in series [30], the solubility is > 10000 µg/mL.
